Test results: US20250017914A1, “6-AZA-QUINOLINE DERIVATIVES AND RELATED USES” (Black Diamond Therapeutics, Inc., priority 2021, published 2025)

Biological target: T1, BaF3 BRAF-KIAA1549 fusion cells (Homo sapiens, UniProt P15056)
T1 construct: The BRAF-KIAA1549 fusion mutant was subcloned into pMXs-IRES-Blasticidin (RTV-016, Cell Biolabs, San Diego, CA); No tag given; Q9HCM3 (UPF0606 protein KIAA1549)
Test: BaF3 BRAF-KIAA1549 fusion cell proliferation assay (CellTiterGlo, 96 hours)
Format: cell-based
Method in brief: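 BaF3 cells retrovirally transduced with BRAF-KIAA1549 fusion and blasticidin-selected were plated at 7×10^4 c/well in RPMI, 10% heat-inactivated FBS, 1% L-glutamine, and exposed to compound for 96 hours. Growth was read as ATP content by CellTiterGlo luminescence. IC50 was fitted by Levenberg-Marquardt, normalised to DMSO-treated cells.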

T1 sequence (P15056 whole entry, change not shown, the tested form may be a part): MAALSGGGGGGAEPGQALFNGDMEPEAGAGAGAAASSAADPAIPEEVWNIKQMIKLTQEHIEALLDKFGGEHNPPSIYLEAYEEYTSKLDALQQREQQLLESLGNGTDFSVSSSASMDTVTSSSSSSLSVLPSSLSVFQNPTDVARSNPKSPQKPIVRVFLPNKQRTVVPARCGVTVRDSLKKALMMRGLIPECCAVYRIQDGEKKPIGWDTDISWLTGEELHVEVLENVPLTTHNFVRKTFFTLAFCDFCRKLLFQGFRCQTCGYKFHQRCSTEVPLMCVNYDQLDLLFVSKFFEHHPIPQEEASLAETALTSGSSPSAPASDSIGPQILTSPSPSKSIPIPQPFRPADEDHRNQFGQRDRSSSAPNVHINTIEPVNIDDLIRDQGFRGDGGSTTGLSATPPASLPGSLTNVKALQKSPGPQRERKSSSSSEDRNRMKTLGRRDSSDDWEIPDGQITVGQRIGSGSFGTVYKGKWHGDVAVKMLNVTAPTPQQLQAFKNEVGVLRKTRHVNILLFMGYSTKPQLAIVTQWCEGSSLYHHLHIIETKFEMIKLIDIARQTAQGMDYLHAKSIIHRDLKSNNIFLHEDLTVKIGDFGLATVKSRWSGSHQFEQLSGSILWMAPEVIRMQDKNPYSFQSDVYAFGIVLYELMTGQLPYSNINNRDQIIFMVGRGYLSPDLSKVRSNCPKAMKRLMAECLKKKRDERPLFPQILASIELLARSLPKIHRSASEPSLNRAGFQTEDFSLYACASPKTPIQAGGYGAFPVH

SMILES | GI50 (Table A1) [nM] | GI50 (Table A2) [nM]
CNc1cc2ncc(-c3cc(NC(=O)c4cc(C(C)(C)F)ccn4)ccc3C)cc2cn1 [Compound 13, 4-(2-Fluoropropan-2-yl)-N-(4-methyl-3-(7-(methylamino)-1,6-naphthyridin-3-yl)phenyl)picolinamide] | 100 to 500 | 
CNc1cc2ncc(-c3cc(NC(=O)c4noc5c4CC(C)(C)CC5)cnc3C)cc2cn1 [Compound 257, 5,5-dimethyl-N-(6-methyl-5-(7-(methylamino)-1,6-naphthyridin-3-yl)pyridin-3-yl)-4,5,6,7-tetrahydrobenzo[d]isoxazole-3-carboxamide] |  | 20 to 100
CNc1cc2ncc(-c3cc(NC(=O)c4cccc(C(C)(C)C#N)c4)c(F)cc3C)cc2cn1 [Compound 223, 3-(2-cyanopropan-2-yl)-N-(2-fluoro-4-methyl-5-(7-(methylamino)-1,6-naphthyridin-3-yl)phenyl)benzamide] |  | 20 to 100
CNc1cc2ncc(-c3cc(NC(=O)c4cc([C@H](O)C(C)(F)F)ccn4)cnc3C)cc2cn1 (single isomer, unassigned) [Compound 249] |  | 20 to 100
CNc1cc2ncc(-c3cc(NC(=O)c4nccc(C(F)(F)F)c4F)cnc3C)cc2cn1 [Compound 52, 3-Fluoro-N-(6-methyl-5-(7-(methylamino)-1,6-naphthyridin-3-yl)pyridin-3-yl)-4-(trifluoromethyl)picolinamide] | < 20 | 
CNc1cc2ncc(-c3cc(NC(=O)C[C@@H]4C[C@H](C(F)(F)F)CCO4)cnc3C)cc2cn1 (single isomer, unassigned) [Compound 35] | 20 to 100 | 
CNc1cc2ncc(-c3cc(NC(=O)c4ccnc(C(F)(F)F)c4)ccc3C)cc2cn1 [Compound 2, N-(4-methyl-3-(7-(methylamino)-1,6-naphthyridin-3-yl)phenyl)-2-(trifluoromethyl)isonicotinamide] | 20 to 100 | 
CNc1cc2ncc(-c3cc(F)cc(NC(=O)c4cc(C(C)(C)C#N)ccn4)c3)cc2cn1 [Compound 47, 4-(2-Cyanopropan-2-yl)-N-(3-fluoro-5-(7-(methylamino)-1,6-naphthyridin-3-yl)phenyl)picolinamide] | 100 to 500 | 
CNc1cc2c(C#N)cc(-c3cc(NC(=O)c4ccnc(C5(F)CC5)c4)ccc3C)cc2cn1 [Compound 272, N-(3-(5-cyano-3-(methylamino)isoquinolin-7-yl)-4-methylphenyl)-2-(1-fluorocyclopropyl)isonicotinamide] |  | 20 to 100
CNc1cc2ncc(-c3cc(NC(=O)c4cnc5n4CC(C)CC5)cnc3C)cc2cn1 (centres unmarked) [Compound 225, 6-methyl-N-(6-methyl-5-(7-(methylamino)-1,6-naphthyridin-3-yl)pyridin-3-yl)-5,6,7,8-tetrahydroimidazo[1,2-a]pyridine-3-carboxamide] |  | 20 to 100
CNc1cc2ncc(-c3cc(NC(=O)c4ccnc(C(C)(C)C#N)c4)ccc3C)cc2cn1 [Compound 56, 2-(2-Cyanopropan-2-yl)-N-(4-methyl-3-(7-(methylamino)-1,6-naphthyridin-3-yl)phenyl)isonicotinamide] | 20 to 100 | 
CNc1cc2ncc(-c3cc(NC(=O)c4ccnc(C5CC(F)(F)C5)c4)cnc3C)cc2cn1 [Compound 34, 2-(3,3-Difluorocyclobutyl)-N-(6-methyl-5-(7-(methylamino)-1,6-naphthyridin-3-yl)pyridin-3-yl)isonicotinamide] | 20 to 100 | 
CNc1cc2ncc(-c3cc(NC(=O)c4cccc5c4CCC5O)cnc3C)cc2cn1 (centres unmarked) [Compound 219, 1-hydroxy-N-(6-methyl-5-(7-(methylamino)-1,6-naphthyridin-3-yl)pyridin-3-yl)-2,3-dihydro-1H-indene-4-carboxamide] |  | ≥ 500
CNc1cc2ncc(-c3cc(NC(=O)c4cccc(C(C)(F)F)c4)cnc3C)cc2cn1 [Compound 200, 3-(1,1-difluoroethyl)-N-(6-methyl-5-(7-(methylamino)-1,6-naphthyridin-3-yl)pyridin-3-yl)benzamide] |  | < 20
CNc1cc2ncc(-c3cc(NC(=O)c4nccc(C(C)C)c4Cl)cnc3C)cc2cn1 [Compound 256, 3-chloro-4-isopropyl-N-(6-methyl-5-(7-(methylamino)-1,6-naphthyridin-3-yl)pyridin-3-yl)picolinamide] |  | 20 to 100
CNc1cc2ncc(-c3cc(NC(=O)c4cc(C(F)(F)F)ccn4)c(F)cc3C)cc2cn1 [Compound 224, N-(2-fluoro-4-methyl-5-(7-(methylamino)-1,6-naphthyridin-3-yl)phenyl)-4-(trifluoromethyl)picolinamide] |  | 100 to 500
CNc1cc2ncc(-c3cc(NC(=O)c4cc(C(C)(C)C#N)ccn4)ccc3Cl)cc2cn1 [Compound 41, N-(4-Chloro-3-(7-(methylamino)-1,6-naphthyridin-3-yl)phenyl)-4-(2-cyanopropan-2-yl)picolinamide] | 20 to 100 | 
CNCC(F)(F)c1cccc(C(=O)Nc2cnc(C)c(-c3cnc4cc(NC)ncc4c3)c2)n1 [Compound 250, 6-(1,1-difluoro-2-(methylamino)ethyl)-N-(6-methyl-5-(7-(methylamino)-1,6-naphthyridin-3-yl)pyridin-3-yl)picolinamide] |  | ≥ 500
CNc1cc2ncc(-c3cc(NC(=O)c4cnc5n4CC(C)CC5)ccc3C)cc2cn1 (centres unmarked) [Compound 204, 6-methyl-N-(4-methyl-3-(7-(methylamino)-1,6-naphthyridin-3-yl)phenyl)-5,6,7,8-tetrahydroimidazo[1,2-a]pyridine-3-carboxamide] |  | < 20
CNc1cc2ncc(-c3cc(NC(=O)c4cc(C(C)(C)C#N)ccn4)cc(F)c3Cl)cc2cn1 [Compound 44, N-(4-chloro-3-fluoro-5-(7-(methylamino)-1,6-naphthyridin-3-yl)phenyl)-4-(2-cyanopropan-2-yl)picolinamide] | 20 to 100 | 
CNc1cc2ncc(-c3cc(NC(=O)c4ccccc4NC(C)C(F)F)cnc3C)cc2cn1 (centres unmarked) [Compound 226, 2-((1,1-difluoropropan-2-yl)amino)-N-(6-methyl-5-(7-(methylamino)-1,6-naphthyridin-3-yl)pyridin-3-yl)benzamide] |  | 20 to 100
CNc1cc2ncc(-c3cc(NC(=O)c4nn(C)c5c4CCCC5)cnc3C)cc2cn1 [Compound 233, 1-methyl-N-(6-methyl-5-(7-(methylamino)-1,6-naphthyridin-3-yl)pyridin-3-yl)-4,5,6,7-tetrahydro-1H-indazole-3-carboxamide] |  | 20 to 100
CNc1cc2ncc(-c3cc(NC(=O)c4cc(C(C)(C)C#N)ccn4)c(Cl)cc3C)cc2cn1 [Compound 50, N-(2-Chloro-4-methyl-5-(7-(methylamino)-1,6-naphthyridin-3-yl)phenyl)-4-(2-cyanopropan-2-yl)picolinamide] | 100 to 500 | 
Cc1ccc(NC(=O)c2ccnc(C3(F)CC3)c2)cc1-c1cnc2cc(N)ncc2c1 [Compound 154, N-(3-(7-amino-1,6-naphthyridin-3-yl)-4-methylphenyl)-2-(1-fluorocyclopropyl)isonicotinamide] | < 20 | 
CNc1cc2ncc(-c3cc(NC(=O)c4cc(C(F)F)ccn4)ccc3C)cc2cn1 [Compound 11, 4-(Difluoromethyl)-N-(4-methyl-3-(7-(methylamino)-1,6-naphthyridin-3-yl)phenyl)picolinamide] | 20 to 100 | 
CNc1cc2ncc(-c3cc(NC(=O)c4cc([C@@H](O)C(C)(F)F)ccn4)cnc3C)cc2cn1 (single isomer, unassigned) [Compound 248] |  | 20 to 100
